Patent US20240043860A1, “NOVEL HYDROXYPHENYLPYRUVATE DIOXYGENASE POLYPEPTIDES AND METHODS OF USE THEREOF” (Syngenta Crop Protection AG, priority 2020, published 2024)
“And” between values parts separate entries of the source, which are not always exact repeats. Identical values can stand only once.

Tests used:
[1] = system: transgenic tobacco plants expressing mutant HPPD SEQ ID NO: 124; assay: spray test, herbicidal damage scoring; type: in vivo; conditions: Table 4.2, 7 days after treatment, 100=complete death, 0=no damage, one value per event
Description: (§1) DNA sequences that encode these polypeptides (optimized for tobacco or, optionally, codon optimized according to a target crop such as soybean) were prepared synthetically. Each sequence was designed to include a 5′ fusion with TMV omega 5′ leader sequence such that they are flanked at the 5′ end with XhoI and at the 3′ end with KpnI to facilitate direct cloning into a suitable binary vector for Agrobacterium-based plant transformation.
(§2) For example, a master plate of Agrobacterium tumefaciens containing the HPPD expressing the binary vector is used to inoculate 10 ml LB (L broth) containing 100 mg/l Rifampicin plus 50 mg/l Kanamycin using a single bacterial colony. This is incubated overnight at 28° C. shaking at 200 rpm. This entire overnight culture is used to inoculate a 50 ml volume of LB containing the same antibiotics. Again this is cultured overnight at 28° C. shaking at 200 rpm. The Agrobacterium cells are pelleted by centrifuging at 3000 rpm for 15 minutes and then resuspended in MS (Murashige and Skoog) medium containing 30 g/l sucrose, pH 5.9 to an OD […]=0.6. This suspension is dispensed in 25 ml aliquots into petri dishes.
(§3) Once rooted, plantlets are transferred from agar and potted into 50% peat, 50% John Innes Soil No. 3 or, for example, MetroMix® 380 soil (Sun Gro Horticulture, Bellevue, WA) with slow-release fertilizer in 3 inch round or 4 inch square pots and left regularly watered to establish for 8-12d in the glass house. Glass house conditions are about 24-27° C. day; 18-21° C. night and approximately a 14h (or longer in UK summer) photoperiod.
(§4) About 20-30 TO events are produced for a number of HPPD variant genes.
(§5) Single copy events amongst the Ti plant lines are identified by their 3:1 segregation ratio (with respect to kanamycin and/or herbicide) and by quantitative RT-PCR. Seed from the thus selected Ti tobacco (var. Samsun) lines are sown in 3 inch diameter pots containing 50% peat and 50% John Innes Soil No. 3. […] HPPD expression levels were monitored by Western analysis.
(§6) Tables 4.1-4.9 show the herbicidal damage scoring on transgenic tobacco plants 7 days after treatment. A score of 100=complete death and 0=no damage observed.

[2] = system: transgenic tobacco plants expressing mutant HPPD SEQ ID NO: 125; assay: spray test, herbicidal damage scoring; type: in vivo; conditions: Table 4.3, 7 days after treatment, 100=complete death, 0=no damage, one value per event
Description: as §1, §2, §3, §4, §5, §6

[3] = system: HPPD variant AVESA V201 (SEQ ID NO: 8); type: biochemical, Avena sativa; conditions: SEQ ID NO: 8 compared to control SEQ ID NO: 122
Description: 25 ul of the overnight cultures were inoculated into fresh 96-deepwell block containing 1 ml Formedium Autoinduction Media (AIM). The AIM cultures were grown for 3h at 37° C. (900rpm) and then transferred to 20° C. overnight (900rpm) to allow protein expression. The overnight cultures were centrifuged and 500 ul of Cellytic B (Sigma Aldrich) was added to resuspend the cell pellets. The coupled HGO assay (Siehl et al, 2014) is used to generate IC50 values for the HPPD variants of interest.
E. coli BL21 (DE3) cells were transformed with a pET24a vector containing a C-terminally his-tagged Arabidopsis HGO gene, grown and induced overnight as described for the HPPD variants above. The cell pellet was resuspended in phosphate buffered saline at pH 7.4 containing 10% Glycerol, 1mm Tris[2-carboxyethyl] phosphine-HCl (TCEP) plus 30 mM Imidazole and lysed using lysozyme/benzonase. The extract was clarified by low speed centrifugation and purified in the same buffer down a 1 ml His Gravitrap column. The bound HGO was eluted in 0.25M imidazole and the fractions pooled and beaded into liquid nitrogen. All procedures apart from the centrifugation and beading steps were carried out under a nitrogen atmosphere.
The coupled HGO assay is carried out by adding 10 ul of HPPD extract to a 96-well plate and then adding 40 ul of reaction buffer (50 mM Bis Tris Propane, pH7.0, 25 mM sodium-L-ascorbate, 400μM mercaptoethanol, 50 μM Fe(II)SO4). The plates are left to incubate for 5 minutes on ice. […] 200 ul of HPP/HGO (197 μM hydroxyphenylpyruvic acid, 16 μl/ml Homogentisic Acid Oxidase in reaction buffer as described above) buffer is then added to the well and the reaction is regularly monitored (e.g. every 30 seconds-5 minutes) for absorbance at 330 nm for a given time period (e.g., for between 15-60 minutes). The data can then be used to calculate the IC50 value for each HPPD variant of interest.

COc1ccc(-n2nc(C)cc(C(=O)C3C(=O)CCCC3=O)c2=O)cc1OC [Herbicide C, dioxopyritrione]
herbicidal damage scoring, Herbicide C (200 g/ha) [1]: 60 and 65 and 50 | herbicidal damage scoring, Herbicide C (200 g/ha) [2]: 60 and 80 and 75 and 85

Cn1nnnc1NC(=O)c1ccc(C(F)(F)F)nc1-n1cncn1 [Herbicide D, N-(1-methyltetrazol-5-yl)-2-(1,2,4-triazol-1-yl)-6-(trifluoromethyl)pyridine-3-carboxamide]
increase of the IC50 value [3]: ~80 fold
